Earlier results, collected in patent US20030072802A1, “Sustained release topiramate” (R.T. Alamo Ventures, Inc., priority 2001, published 2003).

Experiments:
[1] = formulations currently in use; after a 200 mg dose
[2] = test system: state-dependent sodium channel (cultured neurons)
[3] = test system: kainate/AMPA subtype of excitatory amino acid (glutamate) receptor

## CC1(C)OC2COC3(COS(N)(=O)=O)OC(C)(C)OC3C2O1 [topiramate, 2,3:4,5-bis-Q-(1-methylethylidene)-p-D-fructopyranose sulfamate]
[1]
  half life of plasma concentration: about 21 hours
  time of peak topiramate plasma concentration: about 2 hours
[2]
  effect on action potentials elicited repetitively by sustained depolarization: blocked by topiramate in a time-dependent manner
GABAA receptors
  effect on GABA-induced flux of chloride ions into neurons: enhances the ability of GABA to induce a flux of chloride ions into neurons
  effect on the duration of the channel open time: nor did topiramate increase the duration of the channel open time
  effect on the frequency at which GABA activates GABAA receptors: increases the frequency
  sensitivity of the GABA-potentiating effect to flumazenil (benzodiazepine antagonist): not blocked by flumazenil
[3]
  effect on the ability of kainate to activate the kainate/AMPA receptor: antagonizes the ability of kainate to activate
NMDA receptor subtype
  effect on the activity of NMDA at the NMDA receptor subtype: no apparent effect
